This note sets out measurements from PMC10824666 (Nature Cancer, 2023).

Assay in all cases: biochemical
What all share (design): Eurofins DiscoverX kinase panel, competitive binding assay at 1 uM, percent of DMSO control
Conditions in all cases: competitive binding, percent of DMSO control

The target of one assay is BTK (Homo sapiens, UniProt Q06187). The method, boiled down: (§1)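 Competitive binding assay across a 96-kinase panel with KIF18A compounds at 1 µM; values given as percentage of control (POC), single experiment.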
The target of a further assay is DDR1 (Homo sapiens, UniProt Q08345). Put shortly: as §1
For a further assay, the target named is GSK3B (Homo sapiens, UniProt P49841). Put shortly:
as §1

Another assay concerns the target KDR (Homo sapiens, UniProt P35968). Put shortly:
as §1

The target of the next assay is MAP3K1 (Homo sapiens, UniProt Q13233). The method, boiled down: as §1
In another assay the target is T1, MST2 (Homo sapiens, UniProt Q13188).
T1 construct: gene STK3
T1 sequence (Q13188 1-491): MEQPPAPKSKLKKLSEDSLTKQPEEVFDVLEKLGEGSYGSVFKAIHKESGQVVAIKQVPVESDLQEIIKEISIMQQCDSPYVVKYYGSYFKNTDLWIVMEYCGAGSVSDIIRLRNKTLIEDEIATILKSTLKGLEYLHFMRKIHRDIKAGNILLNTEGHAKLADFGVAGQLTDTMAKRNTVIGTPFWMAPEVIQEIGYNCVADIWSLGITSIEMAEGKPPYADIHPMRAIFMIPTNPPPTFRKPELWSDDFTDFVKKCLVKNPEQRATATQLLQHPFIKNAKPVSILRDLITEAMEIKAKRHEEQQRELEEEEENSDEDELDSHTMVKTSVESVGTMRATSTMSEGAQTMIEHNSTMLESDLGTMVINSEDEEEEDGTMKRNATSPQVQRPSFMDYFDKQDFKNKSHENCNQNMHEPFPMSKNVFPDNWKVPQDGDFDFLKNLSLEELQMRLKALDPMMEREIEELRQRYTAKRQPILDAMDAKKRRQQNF
The method, boiled down: as §1

Another assay addresses T2, ROCK 2 (Homo sapiens, UniProt O75116).
T2 construct: gene ROCK2
Put shortly:
as §1

Another assay addresses T3, TSSK1B (Homo sapiens, UniProt Q9BXA7).
T3 sequence (Q9BXA7 1-367): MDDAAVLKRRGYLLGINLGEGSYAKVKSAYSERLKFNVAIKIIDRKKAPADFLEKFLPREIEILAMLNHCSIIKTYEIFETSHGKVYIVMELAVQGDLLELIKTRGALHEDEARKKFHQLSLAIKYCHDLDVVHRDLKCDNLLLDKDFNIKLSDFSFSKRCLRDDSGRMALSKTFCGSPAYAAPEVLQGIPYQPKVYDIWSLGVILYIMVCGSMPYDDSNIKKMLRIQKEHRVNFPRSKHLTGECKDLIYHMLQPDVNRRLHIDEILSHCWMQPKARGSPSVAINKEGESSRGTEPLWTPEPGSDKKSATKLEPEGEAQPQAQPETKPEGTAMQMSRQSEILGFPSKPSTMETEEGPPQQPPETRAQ
Put shortly: as §1

The mark [1] stands for this setting: read-out: Kinome Profiling performed by Eurofins DiscoverX / AM-0277, 1.0 µM / POC.
Where [2] appears, read: read-out: Kinome Profiling performed by Eurofins DiscoverX / AM-1882, 1.0 µM / POC.
Setting [3] is: read-out: Kinome Profiling performed by Eurofins DiscoverX / AM-5308, 1.0 µM / POC.

Like-named read-outs stand apart in the source and are kept apart here.

T2 sequence (O75116 whole entry): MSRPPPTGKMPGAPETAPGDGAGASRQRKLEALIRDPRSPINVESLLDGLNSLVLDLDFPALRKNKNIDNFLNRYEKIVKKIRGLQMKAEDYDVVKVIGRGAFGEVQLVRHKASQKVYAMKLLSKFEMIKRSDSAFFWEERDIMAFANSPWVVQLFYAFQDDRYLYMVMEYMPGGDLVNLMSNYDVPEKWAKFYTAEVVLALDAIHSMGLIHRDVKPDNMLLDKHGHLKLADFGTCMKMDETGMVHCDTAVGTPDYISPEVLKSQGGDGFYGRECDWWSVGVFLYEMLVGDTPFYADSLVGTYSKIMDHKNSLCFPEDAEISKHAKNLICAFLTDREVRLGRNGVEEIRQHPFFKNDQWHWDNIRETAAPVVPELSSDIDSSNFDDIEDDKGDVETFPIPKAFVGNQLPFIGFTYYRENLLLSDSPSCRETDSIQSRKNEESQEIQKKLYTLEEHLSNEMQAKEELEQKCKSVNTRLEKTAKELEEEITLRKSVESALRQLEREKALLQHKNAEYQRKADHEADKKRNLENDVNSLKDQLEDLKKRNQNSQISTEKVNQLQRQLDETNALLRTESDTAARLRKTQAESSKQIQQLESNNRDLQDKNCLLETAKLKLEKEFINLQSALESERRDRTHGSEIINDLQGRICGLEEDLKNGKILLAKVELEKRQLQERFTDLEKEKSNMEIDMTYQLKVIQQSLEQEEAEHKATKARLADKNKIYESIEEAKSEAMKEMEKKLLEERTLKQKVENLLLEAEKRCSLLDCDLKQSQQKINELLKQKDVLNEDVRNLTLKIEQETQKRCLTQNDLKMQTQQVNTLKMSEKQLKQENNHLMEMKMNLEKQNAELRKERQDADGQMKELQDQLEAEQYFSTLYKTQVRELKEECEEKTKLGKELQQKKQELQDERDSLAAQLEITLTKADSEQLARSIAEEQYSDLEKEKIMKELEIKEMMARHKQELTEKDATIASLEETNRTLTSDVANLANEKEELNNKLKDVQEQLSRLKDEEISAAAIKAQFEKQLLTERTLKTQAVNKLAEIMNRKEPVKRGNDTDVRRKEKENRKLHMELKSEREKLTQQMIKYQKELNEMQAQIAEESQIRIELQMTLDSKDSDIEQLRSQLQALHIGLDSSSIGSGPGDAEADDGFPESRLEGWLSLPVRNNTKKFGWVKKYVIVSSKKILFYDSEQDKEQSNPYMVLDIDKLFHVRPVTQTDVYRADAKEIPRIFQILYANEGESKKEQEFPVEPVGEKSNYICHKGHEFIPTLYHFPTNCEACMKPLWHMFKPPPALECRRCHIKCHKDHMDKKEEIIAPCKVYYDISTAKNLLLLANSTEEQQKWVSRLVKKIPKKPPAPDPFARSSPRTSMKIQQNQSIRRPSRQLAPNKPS
Sequence of BTK (Q06187 whole entry): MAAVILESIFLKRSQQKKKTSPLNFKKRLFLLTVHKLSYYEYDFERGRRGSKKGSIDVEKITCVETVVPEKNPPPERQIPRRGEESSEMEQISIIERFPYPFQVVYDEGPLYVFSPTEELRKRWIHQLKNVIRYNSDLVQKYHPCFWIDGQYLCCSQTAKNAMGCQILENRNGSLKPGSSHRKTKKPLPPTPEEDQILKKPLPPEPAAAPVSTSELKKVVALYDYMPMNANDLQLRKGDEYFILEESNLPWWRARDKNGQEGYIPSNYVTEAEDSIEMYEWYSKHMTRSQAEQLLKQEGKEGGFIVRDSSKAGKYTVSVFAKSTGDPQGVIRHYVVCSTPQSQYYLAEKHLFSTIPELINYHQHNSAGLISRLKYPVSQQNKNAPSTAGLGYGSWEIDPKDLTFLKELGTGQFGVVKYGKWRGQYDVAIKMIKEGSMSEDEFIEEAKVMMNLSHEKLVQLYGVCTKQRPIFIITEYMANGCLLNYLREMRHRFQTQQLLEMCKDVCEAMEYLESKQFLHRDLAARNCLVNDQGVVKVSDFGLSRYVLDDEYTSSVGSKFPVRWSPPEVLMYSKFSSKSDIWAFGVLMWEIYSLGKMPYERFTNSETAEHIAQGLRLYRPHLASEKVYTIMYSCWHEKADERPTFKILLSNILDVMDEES
Sequence of MAP3K1 (Q13233 whole entry): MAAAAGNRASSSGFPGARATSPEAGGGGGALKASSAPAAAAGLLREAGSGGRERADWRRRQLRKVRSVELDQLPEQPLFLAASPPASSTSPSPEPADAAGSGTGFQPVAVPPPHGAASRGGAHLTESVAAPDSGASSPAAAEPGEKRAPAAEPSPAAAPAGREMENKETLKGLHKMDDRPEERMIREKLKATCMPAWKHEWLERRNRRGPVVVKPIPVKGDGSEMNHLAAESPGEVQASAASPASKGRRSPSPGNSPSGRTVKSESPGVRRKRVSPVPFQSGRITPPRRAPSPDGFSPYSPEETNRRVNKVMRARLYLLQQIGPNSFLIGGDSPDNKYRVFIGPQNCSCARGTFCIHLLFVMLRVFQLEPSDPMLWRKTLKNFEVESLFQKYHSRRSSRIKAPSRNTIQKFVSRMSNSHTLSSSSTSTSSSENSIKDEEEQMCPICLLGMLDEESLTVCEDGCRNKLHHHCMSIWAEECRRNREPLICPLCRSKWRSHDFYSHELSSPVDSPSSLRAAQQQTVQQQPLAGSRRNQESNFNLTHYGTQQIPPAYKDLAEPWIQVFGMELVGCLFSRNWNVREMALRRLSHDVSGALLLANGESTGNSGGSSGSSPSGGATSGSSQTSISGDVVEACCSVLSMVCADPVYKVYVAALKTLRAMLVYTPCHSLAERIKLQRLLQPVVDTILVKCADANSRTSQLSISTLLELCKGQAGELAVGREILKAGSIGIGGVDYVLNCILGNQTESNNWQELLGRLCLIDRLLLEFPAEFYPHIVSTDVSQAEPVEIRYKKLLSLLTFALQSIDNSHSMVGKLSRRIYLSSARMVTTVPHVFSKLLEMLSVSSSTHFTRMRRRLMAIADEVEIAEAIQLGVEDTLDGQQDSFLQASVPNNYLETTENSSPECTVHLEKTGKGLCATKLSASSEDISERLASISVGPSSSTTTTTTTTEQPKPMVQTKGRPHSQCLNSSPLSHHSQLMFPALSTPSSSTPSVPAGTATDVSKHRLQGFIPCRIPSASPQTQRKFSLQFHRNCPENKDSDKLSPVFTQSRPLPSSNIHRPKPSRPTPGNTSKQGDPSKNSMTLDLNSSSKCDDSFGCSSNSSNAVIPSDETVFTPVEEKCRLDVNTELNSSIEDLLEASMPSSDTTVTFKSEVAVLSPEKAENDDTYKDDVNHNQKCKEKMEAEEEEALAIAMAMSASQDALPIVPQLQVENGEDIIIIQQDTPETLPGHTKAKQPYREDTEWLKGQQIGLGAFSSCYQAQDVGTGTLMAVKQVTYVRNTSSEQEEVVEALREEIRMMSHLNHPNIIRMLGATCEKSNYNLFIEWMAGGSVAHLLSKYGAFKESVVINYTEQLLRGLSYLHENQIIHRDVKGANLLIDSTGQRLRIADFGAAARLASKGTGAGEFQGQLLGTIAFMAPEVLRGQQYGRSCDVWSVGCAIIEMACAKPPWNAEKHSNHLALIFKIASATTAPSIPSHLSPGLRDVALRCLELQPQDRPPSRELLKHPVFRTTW
Sequence of KDR (P35968 whole entry): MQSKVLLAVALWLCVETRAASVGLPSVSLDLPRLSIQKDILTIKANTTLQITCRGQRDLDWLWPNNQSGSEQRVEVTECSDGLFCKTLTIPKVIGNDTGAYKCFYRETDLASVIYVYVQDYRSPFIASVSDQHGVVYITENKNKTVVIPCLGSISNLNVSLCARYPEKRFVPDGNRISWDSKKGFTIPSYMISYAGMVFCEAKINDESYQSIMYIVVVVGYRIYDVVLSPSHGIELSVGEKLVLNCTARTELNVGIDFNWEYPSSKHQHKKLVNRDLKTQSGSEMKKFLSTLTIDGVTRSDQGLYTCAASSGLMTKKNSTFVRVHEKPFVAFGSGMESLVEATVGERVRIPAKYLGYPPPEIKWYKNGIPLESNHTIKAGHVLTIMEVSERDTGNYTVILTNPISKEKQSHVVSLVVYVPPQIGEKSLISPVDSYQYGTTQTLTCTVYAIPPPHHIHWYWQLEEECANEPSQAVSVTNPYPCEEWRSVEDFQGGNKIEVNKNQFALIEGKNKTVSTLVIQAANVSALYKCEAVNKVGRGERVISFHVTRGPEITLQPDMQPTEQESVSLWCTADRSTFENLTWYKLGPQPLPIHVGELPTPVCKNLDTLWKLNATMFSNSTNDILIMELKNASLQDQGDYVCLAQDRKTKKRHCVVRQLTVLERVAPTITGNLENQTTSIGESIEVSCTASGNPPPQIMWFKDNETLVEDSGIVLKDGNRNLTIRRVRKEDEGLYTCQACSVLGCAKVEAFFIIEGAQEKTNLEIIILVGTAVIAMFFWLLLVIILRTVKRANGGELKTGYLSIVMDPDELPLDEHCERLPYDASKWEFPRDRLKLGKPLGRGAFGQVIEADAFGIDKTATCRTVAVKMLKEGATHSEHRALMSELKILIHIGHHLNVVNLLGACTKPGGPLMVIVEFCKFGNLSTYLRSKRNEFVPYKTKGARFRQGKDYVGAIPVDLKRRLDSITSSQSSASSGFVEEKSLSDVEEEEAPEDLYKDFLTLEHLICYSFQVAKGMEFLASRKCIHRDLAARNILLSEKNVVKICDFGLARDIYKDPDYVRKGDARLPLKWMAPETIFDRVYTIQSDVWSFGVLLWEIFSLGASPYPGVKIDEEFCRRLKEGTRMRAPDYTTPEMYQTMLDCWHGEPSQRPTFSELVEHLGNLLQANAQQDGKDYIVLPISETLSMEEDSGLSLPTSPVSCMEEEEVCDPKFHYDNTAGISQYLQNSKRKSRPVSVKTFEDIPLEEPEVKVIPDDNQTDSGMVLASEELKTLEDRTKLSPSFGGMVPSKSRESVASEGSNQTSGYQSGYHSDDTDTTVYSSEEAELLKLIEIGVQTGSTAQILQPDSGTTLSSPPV

In the case of `CC(C)(CO)Nc1ccc(C(=O)Nc2cccc(S(=O)(=O)C3CCCC3)c2)c(N2CCC3(CC2)CC3)n1` [AM-0277], the remaining activity at 1 µM at BTK (setting [1]) turned out to be 100%; at DDR1 (setting [1]) it was 95%; on GSK3B (setting [1]), 100%; at KDR (setting [1]), 90%; at MAP3K1 (setting [1]) it was 100%; on MST2 (setting [1]), 49%. Besides, the values for the remaining activity at 1 µM at ROCK 2 (setting [1]) and at TSSK1B (setting [1]) were 100% and 84%, respectively.
As for `CC(C)(C)NS(=O)(=O)c1cccc(NC(=O)c2ccc(S(=O)(=O)NC(C)(C)C)cc2N2CCC3(CC2)CC3)c1` [AM-1882], the remaining activity at 1 µM worked out at 100% at BTK (setting [2]); 97% at DDR1 (setting [2]); 100% on GSK3B (setting [2]); 80.5% at KDR (setting [2]); 76.5% on MAP3K1 (setting [2]); 91.5% at MST2 (setting [2]). For the same molecule, the values for the remaining activity at 1 µM on ROCK 2 (setting [2]) and on TSSK1B (setting [2]) were 77% and 100%, respectively.
For `C[C@@H]1CN(c2cccc(NC(=O)c3ccc(NS(=O)(=O)CCO)cc3N3CCC4(CC3)CC4)n2)CCO1` [AM-5308], the remaining activity at 1 µM on BTK (setting [3]) was 98.5%; on DDR1 (setting [3]), 100%; at GSK3B (setting [3]) it was 100%; on KDR (setting [3]) it was 53%; on MAP3K1 (setting [3]), 100%; at MST2 (setting [3]) it was 86.5%. The figures for the remaining activity at 1 µM at ROCK 2 (setting [3]) and on TSSK1B (setting [3]) were 97.5% and 100%, respectively.
